Like-named read-outs stand apart in the source and are kept apart here.
Test system: NCYC361 and other strains
Details: for doubling time: YPD supplemented with 100 mg/L of iron sulfate vs YPD
Protocol: Shown are the average and standard deviation of the doubling times measured for each strain in YPD and in YPD supplemented with 100 mg/L of iron sulfate. […] Data represent three biological replicates.

## O.O.O.O.O.O.O.O=S(=O)([O-])[O-].[Fe+2] [iron sulfate, iron (II) sulfate heptahydrate]
NCYC361
  growth with iron supplementation to YPD: partially alleviated the slow growth
NCYC361, p<0.0008
  doubling time: faster
Any other strain
  doubling time: not significantly different

Source: patent publication US10443062B2, “Genes that improve tolerance to lignocellulosic toxins when overexpressed in yeast” (Wisconsin Alumni Research Foundation, priority 2016, dated 2019)
